This assay deals with T1, Recombinant human cathepsin A (Homo sapiens, UniProt P10619).
T1 construct: Recombinant human cathepsin A (residues 29-480, with a C-terminal 10-His tag); 10-His (C); purchased R&D Systems 1049-SE
T1 sequence (P10619 29-312 limits assumed): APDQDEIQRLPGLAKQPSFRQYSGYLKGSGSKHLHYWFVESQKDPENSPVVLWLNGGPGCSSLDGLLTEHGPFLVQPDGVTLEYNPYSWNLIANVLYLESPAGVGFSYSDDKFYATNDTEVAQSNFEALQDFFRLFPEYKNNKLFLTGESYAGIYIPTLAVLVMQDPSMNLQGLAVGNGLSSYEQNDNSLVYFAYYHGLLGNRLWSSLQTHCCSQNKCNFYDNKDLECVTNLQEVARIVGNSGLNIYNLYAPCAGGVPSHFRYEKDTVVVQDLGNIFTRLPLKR
T1 sequence (P10619 327-480 limits assumed): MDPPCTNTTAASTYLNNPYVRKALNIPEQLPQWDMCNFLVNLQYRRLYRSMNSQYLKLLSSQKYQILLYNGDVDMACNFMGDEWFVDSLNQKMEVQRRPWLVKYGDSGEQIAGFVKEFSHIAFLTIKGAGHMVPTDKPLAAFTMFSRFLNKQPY
The experiment in a line: Cathepsin A inhibitory activity. Type of assay: biochemical. To be noted: recombinant human cathepsin A; read-out: Activity (2): Cathepsin A inhibitory activity, IC50 class. In short, it runs like this:
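Human cathepsin A (res. 29-480, C-His10) pre-activated with cathepsin L (MES pH 6.0, DTT, 15 min, 37 °C; quenched with 10 μM E-64). Enzyme (833 ng/ml) preincubated 15 min RT with compound in MES pH 5.5/DTT, then 2 μM Bodipy FL-bradykinin for 15 min RT. Capillary electrophoresis product/substrate peak areas; IC50 from % inhibition.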

A word on the IC50: it is the concentration that inhibits the measured activity by half.

As to `COc1cc(C(=O)N[C@@H](CC(=O)NC(C)(C)C)c2ccccc2C)nn1-c1ccccc1F` [Example 922, 1-(2-Fluoro-phenyl)-5-methoxy-1H-pyrazole-3-carboxylic acid ((S)-2-tert-butylcarbamoyl-1-o-tolyl-ethyl)-amide], the IC50 lay within 1 to 30 µM. In the case of `COc1cc(C(=O)N[C@@H](CC(=O)Nc2cc(C)[nH]n2)c2ccccc2C)nn1-c1ccccc1F` [Example 923, 1-(2-Fluoro-phenyl)-5-methoxy-1H-pyrazole-3-carboxylic acid [(S)-2-(5-methyl-1H-pyrazol-3-ylcarbamoyl)-1-o-tolyl-ethyl]-amide] it was 1 to 30 µM. Consider `COc1cc(C(=O)N[C@@H](CC(=O)NCC(C)(C)C)c2ccccc2C)nn1-c1ccccc1F` [Example 924, 1-(2-Fluoro-phenyl)-5-methoxy-1H-pyrazole-3-carboxylic acid [(S)-2-(2,2-dimethyl-propylcarbamoyl)-1-o-tolyl-ethyl]-amide], for which the IC50 was < 0.1 µM.

For `COc1cc(C(=O)N[C@@H](CC(=O)NCC(C)(C)CO)c2ccccc2C)nn1-c1ccccc1F` [Example 925, 1-(2-Fluoro-phenyl)-5-methoxy-1H-pyrazole-3-carboxylic acid [(S)-2-(3-hydroxy-2,2-dimethyl-propylcarbamoyl)-1-o-tolyl-ethyl]-amide], the IC50 fell in the range of 1 to 30 µM. In the case of `COc1cc(C(=O)N[C@@H](CC(=O)NCC#N)c2ccccc2C)nn1-c1ccccc1F` [Example 926, 1-(2-Fluoro-phenyl)-5-methoxy-1H-pyrazole-3-carboxylic acid [(S)-2-(cyanomethyl-carbamoyl)-1-o-tolyl-ethyl]-amide] it was 1 to 30 µM.

Consider `COc1cc(C(=O)N[C@@H](CC(=O)N[C@@H](CO)C(C)C)c2ccccc2C)nn1-c1ccccc1F` [Example 927, 1-(2-Fluoro-phenyl)-5-methoxy-1H-pyrazole-3-carboxylic acid [(S)-2-((R)-1-hydroxymethyl-2-methyl-propylcarbamoyl)-1-o-tolyl-ethyl]-amide], for which the IC50 fell in the range of 0.1 to 1 µM. Take `COc1cc(C(=O)N[C@@H](CC(=O)NCc2nnn[nH]2)c2ccccc2C)nn1-c1ccccc1F` [Example 928]: the 50% inhibitory concentration (IC50) lay within 0.1 to 1 µM. Turning to `COc1cc(C(=O)N[C@@H](CC(=O)NC(C)C)c2ccccc2C)nn1-c1ccccc1F` [Example 929], the IC50 lay within 0.1 to 1 µM. In the case of `COc1cc(C(=O)N[C@@H](CC(=O)Nc2ccn(C)n2)c2ccccc2C)nn1-c1ccccc1F` [Example 930, 1-(2-Fluoro-phenyl)-5-methoxy-1H-pyrazole-3-carboxylic acid [(S)-2-(1-methyl-1H-pyrazol-3-ylcarbamoyl)-1-o-tolyl-ethyl]-amide] it was 0.1 to 1 µM. With `COc1cc(C(=O)N[C@@H](CC(=O)NC2CCNC2=O)c2ccccc2C)nn1-c1ccccc1F` (stereo partly drawn) [Example 931, 1-(2-Fluoro-phenyl)-5-methoxy-1H-pyrazole-3-carboxylic acid [(S)-2-(2-oxo-pyrrolidin-3-ylcarbamoyl)-1-o-tolyl-ethyl]-amide] the figure was 1 to 30 µM; with `COc1cc(C(=O)N[C@@H](CC(=O)Nc2cc(C)on2)c2ccccc2C)nn1-c1ccccc1F` [Example 932, 1-(2-Fluoro-phenyl)-5-methoxy-1H-pyrazole-3-carboxylic acid [(S)-2-(5-methyl-isoxazol-3-ylcarbamoyl)-1-o-tolyl-ethyl]-amide], 0.1 to 1 µM.

With `COc1cc(C(=O)N[C@@H](CC(=O)NC2CC2)c2ccccc2C)nn1-c1ccccc1F` [Example 933, 1-(2-Fluoro-phenyl)-5-methoxy-1H-pyrazole-3-carboxylic acid ((S)-2-cyclopropylcarbamoyl-1-o-tolyl-ethyl)-amide], the IC50 was < 0.1 µM. On to `COc1cc(C(=O)N[C@@H](CC(=O)NCc2ccno2)c2ccccc2C)nn1-c1ccccc1F` [Example 934, 1-(2-Fluoro-phenyl)-5-methoxy-1H-pyrazole-3-carboxylic acid {(S)-2-[(isoxazol-5-ylmethyl)-carbamoyl]-1-o-tolyl-ethyl}-amide], for which the IC50 was < 0.1 µM. With `COCCNC(=O)C[C@H](NC(=O)c1cc(OC)n(-c2ccccc2F)n1)c1ccccc1C` [Example 935, 1-(2-Fluoro-phenyl)-5-methoxy-1H-pyrazole-3-carboxylic acid [(S)-2-(2-methoxy-ethylcarbamoyl)-1-o-tolyl-ethyl]-amide] the figure was < 0.1 µM. As for `COc1cc(C(=O)N[C@@H](CC(=O)N[C@H](CO)C(C)C)c2ccccc2C)nn1-c1ccccc1F` [Example 936, 1-(2-Fluoro-phenyl)-5-methoxy-1H-pyrazole-3-carboxylic acid [(S)-2-((S)-1-hydroxymethyl-2-methyl-propylcarbamoyl)-1-o-tolyl-ethyl]-amide], the half-inhibitory concentration (IC50) is < 0.1 µM. In the case of `COC[C@H](C)NC(=O)C[C@H](NC(=O)c1cc(OC)n(-c2ccccc2F)n1)c1ccccc1C` [Example 937, 1-(2-Fluoro-phenyl)-5-methoxy-1H-pyrazole-3-carboxylic acid [(S)-2-((S)-2-methoxy-1-methyl-ethylcarbamoyl)-1-o-tolyl-ethyl]-amide] it was < 0.1 µM; in that of `COc1cc(C(=O)N[C@@H](CC(=O)NC[C@@H]2CCCO2)c2ccccc2C)nn1-c1ccccc1F` [Example 938, 1-(2-Fluoro-phenyl)-5-methoxy-1H-pyrazole-3-carboxylic acid ((S)-2-{[(S)-1-(tetrahydro-furan-2-yl)methyl]-carbamoyl}-1-o-tolyl-ethyl)-amide], < 0.1 µM. With `COc1cc(C(=O)N[C@@H](CC(=O)N[C@H](C)C(C)C)c2ccccc2C)nn1-c1ccccc1F` [Example 939, 1-(2-Fluoro-phenyl)-5-methoxy-1H-pyrazole-3-carboxylic acid [(S)-2-((R)-1,2-dimethyl-propylcarbamoyl)-1-o-tolyl-ethyl]-amide] the figure was < 0.1 µM.
